Test results taken from patent US11319311B2, “Crystalline forms of Actinomycin D for treatment of cancer” (TRANSGENEX NANOBIOTECH, INC., priority 2018, dated 2022).
Like-named read-outs stand apart in the source and are kept apart here.

Key:
PANC-1 = assay: Monolayer cell culture IC50 (CellTiter-Glo viability), PANC-1; type: cell-based; conditions: Pancreatic, PANC-1, monolayer, 72 hours treatment, average of three replications
Experimental: Cancer cell lines listed in Table 1 were subjected for testing anti-cancer potency or the half maximal inhibitory concentration (IC50) of the D-Actinomycin (DACT) molecular complexes.
The SK-ES-1, U-2 OS, and SAOS-2 cells were cultured in a growth medium that is ATCC-formulated McCoy's 5a Medium Modified, Catalog No. 30-2007. The PC-3, PANC-1, SK-Mel-5, A549, H460, and H1299 were cultured in a growth medium that is ATCC-formulated Dulbecco's Modified Eagle's Medium (DMEM), Catalog No. 30-2002. The cells were seeded on 96-well microtiter plates with 3500 cells per well and cultured in an incubator (Model 3120, Thermo Scientific, USA) with a constant temperature at 37° C. and 5% carbon dioxide (CO2) gas for 24 hours.
The new DACT-molecular complexes were made into a series with concentration of 200 nM to 40 nM, 8 nM, 1.6 nM, 0.32 nM, and 0.064 nM. 100 μl of each solution was then added into each well to bring out the final concentration of the drug treatment at 100 nM, 20 nM, 4 nM, 0.8 nM, 0.16 nM, or 0.032 nM, respectively.
The treated cells in the 96 well plate was then further cultured at the same conditions for 72 hours and then subjected for a final cell viability measurement. The measurement used a homogeneous method to determine the number of metabolically active cells presented in each of treatments. A testing reagent for the measurement is a mixture solution of the CellTiter-Glo® 2.0 reagent (CTG, Promega Cat #G9243, USA) and growth medium in 1:1 ratio in this respect.
The 96-well plate with the new molecular complex treated cells was taken out from incubator after the 72 hours of incubation, and the treatment solution in each well was removed using a multichannel pipette, and 100 μl of the testing reagent were added into each well. The plate was then placed on a plate shaker for 15 min. The plate was covered with a piece of aluminum foil to protect the CTG luminescence during the shaking time.
Then 90 μl of the 100 μl testing reagent were transferred into an opaque-walled 96-well plate for the CTG luminescence reading on a plate reader (SynergyH4 Hybrid Reader, Biotek, USA). The luminescence intensity of each treatment was positively correlated with the number of cells survived during the treatments.
All the treatment data was normalized by comparing with the control samples that had only growth medium without any molecular complexes. The half maximal inhibitory concentration (IC50) data was calculated using the nonlinear regression model and dose-responses (inhibition) curve built in the software. Each of treatments was performed in three replications each time and repeated three times for validation. The IC50 average […] (Avg) and standard deviation (STDV) were calculated based on the three replications.

[1] = Accelerated stability studies (PXRD physical form stability); type: physicochemical; conditions: accelerated conditions 75% humidity and 40° C., one year, by PXRD
Experimental: Stability studies of the DACT novel forms were conducted using accelerated conditions (75% humidity and 40° C.) of which are obvious to the artisan in the field, for more than one year. […] Selected data of the novel complexes of DACT:methylparaben, propylparaben and diphenic acid proves this point.

[2] = system: human sarcoma cell line SK-ES-1; assay: Tumor sphere formation assay; type: cell-based
From the text: Cancer stem cells (CSCs) are defined as a small subset of cells within a tumor with the ability to self-renew and often drive tumor progression and recurrence after chemotherapy treatment (Xiaochen Zhou, et al. 2015. A Reliable Parameter to Standardize the Scoring of Stem Cell Spheres. PLOS One 10(5); e0127348). It is important to study the responses of cancer stem cells or the tumors treated with the new molecular complexes. We have assessed cancer stem cells (CSCs) growth using tumor sphere formation assay, which involves culturing cancer cells in low attachment plates in serum free media. Sphere size and diameter was measured using Image) software and statistical analysis was performed using Graph Pad Prism Software.
The stem cell culture medium is prepared for 500 ml (250 ml of Dulbecco's Modified Eagle Medium (DMEM) (ATCC® 30-2002) plus 250 ml of F-12K medium (ATCC® 30-2004)) using 20 ng/ml epidermal growth factor, 10 ng/ml basic fibroblast growth factor, 5 μg/ml insulin and 0.4% Bovine Serum Albumin. All preparation methods known to the person skilled in the art.
The cancer cell line used in this study was human sarcoma cell line SK-ES-1. The cells were seeded in a density of 200 per well per 200 μl in a 96-well Ultra-Low Attachment plate (Corning, Cat #3474, USA), this plate is specially treated for stem cell growth or tumor culture. On the day 1 of seeding, 100 μl of cell solution was added into the plate. […]
On the day 6 of seeding, 10 μl of NucBlue Live Cell Stain ReadyProbes (Invitrogen Cat #R37605, USA) were added into each well for staining to visualize the live cells under the blue fluorescent light. […] Then the plate was brought to the Keyence imaging device (Keyence America, All-in-One Fluorescence Microscope BZ-X800, USA) for image scanning. […]
The sum of sphere image area of every individual sphere, with diameter over 50 μm, in each well was calculated. […] The sphere image area was calculated based on the sum area of spheres with diameter over 50 μm in each treatment well, and significance was declared at P<0.05 for the bars indicated by *, and P<0.001 by **. […]

## CCCOC(=O)c1ccc(O)cc1.Cc1c2oc3c(C)ccc(C(=O)NC4C(=O)NC(C(C)C)C(=O)N5CCCC5C(=O)N(C)CC(=O)N(C)C(C(C)C)C(=O)OC4C)c3nc-2c(C(=O)NC2C(=O)NC(C(C)C)C(=O)N3CCCC3C(=O)N(C)CC(=O)N(C)C(C(C)C)C(=O)OC2C)c(N)c1=O (stereo not shown) [DACT-propylparaben]
PANC-1; Test I, read-out: IC50 Test (I) Avg
  IC50: 4.61 nM
PANC-1; Test II, read-out: IC50 Test (II) Avg
  IC50: 1.71 nM
PANC-1; Test III, read-out: IC50 Test (III) Avg
  IC50: 3.29 nM
[1]
  physical form stability: stable
[2]; SK-ES-1 spheres with diameter over 50 μm, day 6 of seeding, compared with pure parent molecule DACT
  sphere area: noticeable reduction in sphere area
[2]; compared with that of the parent molecule
  tumor spheres size (SSS): reduced tumor spheres size (SSS)
[2]; compared with the parent molecule
  tumor sphere formation efficiency (SFE): reduced tumor sphere formation efficiency (SFE)
